# Data from ChEMBL document CHEMBL1143999, “A new generation of adenosine receptor antagonists: from di- to trisubstituted aminopyrimidines” (Bioorg Med Chem, 2008).
# Assays:
# Adenosine receptor A1 [1] = target: T1, Adenosine receptor A1 (Homo sapiens, UniProt P30542); assay: biochemical
# T1 sequence (P30542 whole entry): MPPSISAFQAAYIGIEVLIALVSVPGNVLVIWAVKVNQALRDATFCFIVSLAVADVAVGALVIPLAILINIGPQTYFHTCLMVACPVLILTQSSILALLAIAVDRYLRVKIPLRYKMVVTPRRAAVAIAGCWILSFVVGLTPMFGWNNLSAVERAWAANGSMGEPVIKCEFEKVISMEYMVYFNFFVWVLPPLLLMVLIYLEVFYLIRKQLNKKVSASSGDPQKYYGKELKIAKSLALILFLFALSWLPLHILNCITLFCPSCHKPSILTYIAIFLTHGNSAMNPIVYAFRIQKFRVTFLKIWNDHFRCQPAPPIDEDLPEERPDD
# Adenosine receptor A2a [2] = target: T2, Adenosine receptor A2a (Homo sapiens, UniProt P29274); assay: biochemical
# [3] = target: T3, Adenosine receptor A1 (Homo sapiens) (UniProt P30542); assay: Displacement of [3H]DPCPX from human adenosine A1 receptor expressed in CHO cells at 1 uM; type: cell-based
# T3 sequence (whole entry): T1 sequence (P30542 whole entry)
# Adenosine receptor A2a [4] = target: T2, Adenosine receptor A2a; assay: Displacement of [3H]ZM-241385 from human adenosine A2A receptor expressed in HEK293 cells at 1 uM; type: cell-based
# Adenosine receptor A1 [5] = target: T1, Adenosine receptor A1; assay: (§1) Activity at human adenosine A1 receptor expressed in CHO cells assessed as inhibition of CPA-induced decrease in forskolin-stimulated cAMP production by TR-FRET assay; type: functional, cell-based
# [6] = target: T3, Adenosine receptor A1 (Homo sapiens); assay: as §1; type: functional, cell-based
# Adenosine receptor A3 = target: T4, Adenosine receptor A3 (Homo sapiens, UniProt P0DMS8); assay: biochemical
# T4 sequence (P0DMS8 whole entry): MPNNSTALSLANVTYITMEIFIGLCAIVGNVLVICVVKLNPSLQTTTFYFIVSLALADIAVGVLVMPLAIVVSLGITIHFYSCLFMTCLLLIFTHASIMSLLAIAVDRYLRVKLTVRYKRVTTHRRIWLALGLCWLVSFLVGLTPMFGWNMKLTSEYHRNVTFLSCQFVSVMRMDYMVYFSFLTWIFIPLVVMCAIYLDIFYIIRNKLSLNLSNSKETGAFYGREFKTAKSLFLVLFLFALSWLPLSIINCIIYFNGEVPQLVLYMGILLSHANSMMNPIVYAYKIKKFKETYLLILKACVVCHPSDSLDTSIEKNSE
# Description: Displacement of [3H]AB-MECA from human adenosine A3 receptor expressed in HEK293 cells
# T2 sequence (P29274 whole entry): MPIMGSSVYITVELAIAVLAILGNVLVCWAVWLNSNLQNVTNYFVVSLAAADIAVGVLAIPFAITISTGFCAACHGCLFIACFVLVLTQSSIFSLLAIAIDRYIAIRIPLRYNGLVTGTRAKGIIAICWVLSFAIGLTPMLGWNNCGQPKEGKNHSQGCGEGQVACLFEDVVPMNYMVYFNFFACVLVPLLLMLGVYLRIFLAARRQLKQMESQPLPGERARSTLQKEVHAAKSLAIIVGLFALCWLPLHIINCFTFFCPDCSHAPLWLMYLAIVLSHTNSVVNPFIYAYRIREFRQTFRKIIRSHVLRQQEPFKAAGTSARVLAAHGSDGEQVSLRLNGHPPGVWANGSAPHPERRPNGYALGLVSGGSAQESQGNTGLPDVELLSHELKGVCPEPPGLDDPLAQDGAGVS
Ki (Adenosine receptor A1 [1]) [µM],Ki (Adenosine receptor A2a [2]) [µM],SMILES,other results
0.102,0.3,COc1ccc(C(=O)Nc2nc(-c3ccccc3)c(C#N)c(-c3ccccc3)n2)cc1,–
–,–,N#Cc1c(-c2ccccc2)nc(NC(=O)c2ccccc2)nc1-c1ccccc1,Activity [3]: 38%; Activity (Adenosine receptor A2a [4]): 48%
0.0012,0.159,N#Cc1c(-c2ccccc2)nc(NC(=O)C2CCCC2)nc1-c1ccccc1,IC50 (Adenosine receptor A1 [5]): 0.15 µM; Kb [6]: 0.003 µM
0.0064,0.0545,CCC(CC)C(=O)Nc1nc(-c2ccccc2)c(C#N)c(-c2ccccc2)n1,–
0.0279,0.0498,N#Cc1c(NC(=O)C2CC2)nc(-c2ccccc2)nc1-c1ccccc1,–
0.0029,0.0482,CCCC(=O)Nc1nc(-c2ccccc2)c(C#N)c(-c2ccccc2)n1,–
0.0049,0.0443,N#Cc1c(N)nc(-c2ccccc2)nc1-c1ccc2c(c1)OCO2,–
–,1.65,OC[C@H]1O[C@@H](n2cnc3c(NC4CCCC4)ncnc32)[C@H](O)[C@@H]1O [N6-CYCLOPENTYLADENOSINE],–
0.043,–,CCCC(=O)Nc1nc(-c2ccccc2)cc(-c2ccc3c(c2)OCO3)n1,Activity (Adenosine receptor A2a [4]): 8%
0.0279,0.574,CCC(CC)C(=O)Nc1cc(-c2ccc3c(c2)OCO3)nc(-c2ccccc2)n1,Ki (Adenosine receptor A3): 0.634 µM
0.115,0.158,Cc1ccc(C(=O)Nc2nc(-c3ccccc3)c(C#N)c(-c3ccccc3)n2)cc1,–
0.0923,0.0329,N#Cc1c(-c2ccccc2)nc(NC(=O)c2ccc(Cl)cc2)nc1-c1ccccc1,–
0.0094,0.0455,N#Cc1c(-c2ccccc2)nc(NC(=O)C2CC2)nc1-c1ccccc1,–
0.0083,0.0213,CCCC(=O)Nc1nc(-c2ccccc2)c(C#N)c(-c2ccc3c(c2)OCO3)n1,–
0.0173,0.339,O=C(Nc1cc(-c2ccc3c(c2)OCO3)nc(-c2ccccc2)n1)C1CCCC1,Ki (Adenosine receptor A3): 0.186 µM
0.0134,–,CCCC(=O)Nc1nc(-c2ccccc2)nc(-c2ccc3c(c2)OCO3)c1C#N,Activity (Adenosine receptor A2a [4]): 23%
–,–,N#Cc1c(-c2ccccc2)nc(NC(=O)c2ccc(Cl)c(Cl)c2)nc1-c1ccccc1,Activity [3]: 58%; Activity (Adenosine receptor A2a [4]): 35%
0.0068,0.222,CCCC(=O)Nc1cc(-c2ccc3c(c2)OCO3)nc(-c2ccccc2)n1,Ki (Adenosine receptor A3): 0.0539 µM
0.0176,–,CCC(CC)C(=O)Nc1nc(-c2ccccc2)cc(-c2ccc3c(c2)OCO3)n1,Activity (Adenosine receptor A2a [4]): 33%
0.0081,–,O=C(Nc1nc(-c2ccccc2)cc(-c2ccc3c(c2)OCO3)n1)C1CCCC1,Activity (Adenosine receptor A2a [4]): 26%
0.013,0.0692,O=C(Nc1cc(-c2ccc3c(c2)OCO3)nc(-c2ccccc2)n1)C1CC1,Ki (Adenosine receptor A3): 0.0307 µM
0.0126,0.0695,CCCC(=O)Nc1nc(-c2ccccc2)nc(-c2ccccc2)c1C#N,–
0.0028,0.0272,N#Cc1c(-c2ccccc2)nc(NC(=O)C2CCCC2)nc1-c1ccc2c(c1)OCO2,–
–,–,N#Cc1c(NC(=O)C2CCCC2)nc(-c2ccccc2)nc1-c1ccc2c(c1)OCO2,IC50 (Adenosine receptor A1 [5]): 1.4 µM; Kb [6]: 0.028 µM
–,–,N#Cc1c(-c2ccccc2)nc(NC(=O)c2ccco2)nc1-c1ccccc1,Activity [3]: 26%; Activity (Adenosine receptor A2a [4]): 42%
–,0.381,Nc1nc(-c2ccccc2)cc(-c2ccc3c(c2)OCO3)n1,–
0.0184,–,CCC(CC)C(=O)Nc1nc(-c2ccccc2)nc(-c2ccc3c(c2)OCO3)c1C#N,Activity (Adenosine receptor A2a [4]): 0%
0.0053,0.28,N#Cc1c(NC(=O)C2CCCC2)nc(-c2ccccc2)nc1-c1ccccc1,–
0.0108,0.019,N#Cc1c(N)nc(-c2ccccc2)nc1-c1ccccc1,–
0.0029,0.0353,CC(C)C(=O)Nc1nc(-c2ccccc2)c(C#N)c(-c2ccccc2)n1,–

SMILES,Ki (Adenosine receptor A1 [1]) [µM],Ki (Adenosine receptor A2a [2]) [µM],other results
N#Cc1c(-c2ccccc2)nc(N)nc1-c1ccc2c(c1)OCO2,–,0.0052,–
N#Cc1c(-c2ccccc2)nc(N)nc1-c1ccccc1,–,0.0227,–
Nc1nc(-c2ccccc2)cc(-c2ccccc2)n1,0.0177,–,–
